Nine molecules from US6372183B1 (priority 1991, dated 2002) can be followed below.

Like-named read-outs stand apart in the source and are kept apart here.

The test system of experiment [1] is muscarinic acetylcholine receptors (MAChRs).
The target of experiment [2] is human neuronal calcium channel α1D, α2 and β subunits (Homo sapiens, UniProt Q01668). To be noted: 13old cells; 50 mM KCl.
Procedure: The assays were conducted using the fully automated version of the assay, as described for analysis of calcium channels in positive control IMR32 and SHSY5Y cells. Fluorescence was measured prior to addition of KCl to the cells to record pre-reagent fluorescence, i.e., noise, fluorescence. Signal fluorescence is the maximal fluorescence recorded after addition of KCl to the cells.
The automated assays were performed as described for analysis of calcium channel activity of IMR32 and SHSY5Y cells. For each dose-dependence assay, different wells of the microtiter plate received different concentrations of the agonist or antagonist, the background fluorescence was measured, and. […] Repeated fluorescence measurements were made before and after KCl addition and the values were recorded. A total of five fluorescence readings were taken before KCl addition. […] The plate was then automatically repositioned at the fluorescence measuring position (a delay of two seconds was measured between reagent addition and the first fluorescence measurement after reagent addition) and 125 fluorescence measurements were taken and values were recorded. […]
Dose-response curves were generated from the fluorescence data. In constructing these curves, the fluorescence value recorded in the presence of each concentration of compound was plotted as the percent maximum fluorescence vs. concentration. […]
Experiment [3] concerns voltage-dependent calcium channels.
Procedure: (§1) SHSY5Y cells, induced for six days with 10 μM retinoic acid (Sigma), and IMR32 cells, induced for ten days with 1 mM dibutyryl cAMP (dbcAMP) and 2.5 μM bromodeoxyuridine (BrdU) (both from Boehringer-Mannheim, Indianapolis, IN) were treated with various calcium channel interactive drugs before kCl depolarization and measurement of fluorescence.
Experiment [4] has the same test system. This is another data set of the same source.
Procedure: as §1
In experiment [5] the test system is nicotinic acetylcholine receptors (NAChR).
Procedure: The cells were plated and loaded with the fluorescent dye Fluo-3 and the assays were carried out substantially as described in the modified method of Example 3A except that the nicotinic receptors of the cells were activated.

Sequence of human neuronal calcium channel α1D, α2 and β subunits (Q01668 whole entry): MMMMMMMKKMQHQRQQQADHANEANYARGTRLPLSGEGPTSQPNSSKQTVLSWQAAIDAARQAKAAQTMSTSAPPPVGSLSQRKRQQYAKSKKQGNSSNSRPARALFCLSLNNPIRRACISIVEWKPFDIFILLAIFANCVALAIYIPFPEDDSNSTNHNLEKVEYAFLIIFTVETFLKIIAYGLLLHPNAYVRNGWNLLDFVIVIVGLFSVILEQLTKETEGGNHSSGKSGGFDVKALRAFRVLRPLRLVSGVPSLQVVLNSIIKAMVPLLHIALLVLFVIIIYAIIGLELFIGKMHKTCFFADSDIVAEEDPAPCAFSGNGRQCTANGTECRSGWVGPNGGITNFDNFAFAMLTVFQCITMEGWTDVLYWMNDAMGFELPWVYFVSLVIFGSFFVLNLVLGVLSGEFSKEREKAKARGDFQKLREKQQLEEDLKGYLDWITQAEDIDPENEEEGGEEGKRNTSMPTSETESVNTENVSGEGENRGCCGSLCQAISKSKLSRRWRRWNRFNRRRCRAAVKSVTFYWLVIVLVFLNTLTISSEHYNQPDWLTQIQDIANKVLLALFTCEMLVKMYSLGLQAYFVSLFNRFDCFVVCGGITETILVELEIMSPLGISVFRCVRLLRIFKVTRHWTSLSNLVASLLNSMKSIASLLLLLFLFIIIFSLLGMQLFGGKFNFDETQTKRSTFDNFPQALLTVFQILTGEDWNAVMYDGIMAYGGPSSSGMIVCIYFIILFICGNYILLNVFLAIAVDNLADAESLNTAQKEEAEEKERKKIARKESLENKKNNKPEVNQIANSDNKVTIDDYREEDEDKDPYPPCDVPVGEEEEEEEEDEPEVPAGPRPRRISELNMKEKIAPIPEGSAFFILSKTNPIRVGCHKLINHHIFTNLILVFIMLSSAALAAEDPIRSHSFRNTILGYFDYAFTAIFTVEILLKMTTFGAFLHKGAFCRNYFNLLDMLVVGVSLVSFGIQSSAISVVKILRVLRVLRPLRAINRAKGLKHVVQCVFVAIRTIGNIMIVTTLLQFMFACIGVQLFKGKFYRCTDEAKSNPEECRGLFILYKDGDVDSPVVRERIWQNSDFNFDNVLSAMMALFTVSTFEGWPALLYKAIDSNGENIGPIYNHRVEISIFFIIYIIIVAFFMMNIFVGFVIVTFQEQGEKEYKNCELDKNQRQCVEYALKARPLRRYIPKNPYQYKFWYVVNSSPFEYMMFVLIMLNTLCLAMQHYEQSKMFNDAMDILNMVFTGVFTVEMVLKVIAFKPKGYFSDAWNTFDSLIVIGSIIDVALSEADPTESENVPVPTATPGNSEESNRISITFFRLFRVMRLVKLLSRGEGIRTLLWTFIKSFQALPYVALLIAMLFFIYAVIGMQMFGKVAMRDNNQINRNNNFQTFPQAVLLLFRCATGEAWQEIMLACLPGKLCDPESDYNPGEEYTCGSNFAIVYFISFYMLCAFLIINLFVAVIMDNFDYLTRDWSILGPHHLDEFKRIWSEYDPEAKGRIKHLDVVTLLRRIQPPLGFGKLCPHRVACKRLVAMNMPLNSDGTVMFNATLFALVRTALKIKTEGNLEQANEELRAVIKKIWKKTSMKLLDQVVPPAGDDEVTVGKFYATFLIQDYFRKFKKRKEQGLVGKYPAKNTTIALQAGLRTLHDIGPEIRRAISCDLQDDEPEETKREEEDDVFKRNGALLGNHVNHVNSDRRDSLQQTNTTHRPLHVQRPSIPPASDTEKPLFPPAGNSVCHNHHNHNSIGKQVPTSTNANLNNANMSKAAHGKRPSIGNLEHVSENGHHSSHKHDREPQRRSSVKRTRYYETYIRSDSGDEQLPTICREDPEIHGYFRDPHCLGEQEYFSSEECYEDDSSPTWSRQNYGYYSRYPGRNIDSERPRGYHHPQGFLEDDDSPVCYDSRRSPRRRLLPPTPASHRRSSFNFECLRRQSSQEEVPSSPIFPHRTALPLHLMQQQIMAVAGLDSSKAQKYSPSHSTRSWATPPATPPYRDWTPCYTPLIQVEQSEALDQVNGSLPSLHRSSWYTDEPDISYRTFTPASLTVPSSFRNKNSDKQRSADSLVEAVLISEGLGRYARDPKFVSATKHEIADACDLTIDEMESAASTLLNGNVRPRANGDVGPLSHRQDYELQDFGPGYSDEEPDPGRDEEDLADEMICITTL

Turning to `CN1[C@@H]2C[C@@H](OC(=O)[C@H](CO)c3ccccc3)C[C@H]1[C@@H]1O[C@@H]12` [scopolamine], the “Fluorescence S/N ratio” value in experiment [1] was determined as 1.0. In the case of omega-CgTx, the “Inhibition of the KCl-induced fluorescence increase (in words)” value in experiment [2] was “did not completely inhibit”.

Regarding cadmium, the “Fluorescence Signal to Noise Ratio” value was found to be 1.0 in experiment [3] (SHSY5Y, 50 mM KCl and 200 μM compound); 1.0 in experiment [4] (IMR32, 50 mM KCl and 200 μM compound). Turning to Bay K 8644 [BayK 8644], the “Fluorescence Signal to Noise Ratio” value in experiment [3] (SHSY5Y, 50 mM KCl and 1 μM compound) came to 2.7; in experiment [4] (IMR32, 50 mM KCl and 1 μM compound), 2.5. Moreover, the “Concentration at which potentiation of the fluorescence response to KCl was maximal” value in experiment [2] is given as 100 nM. Turning to `C[N+](C)(C)CCCCCC[N+](C)(C)C` [hexamethonium], the “Fluorescence S/N ratio” value in experiment [5] is reported as 1.0. On the same count and under the same terms, the result for D-tubocurarine [DTC] reads 1.0. Regarding KCl [KC1], the “Fluorescence Signal to Noise Ratio” value amounted to 1.9 in experiment [3] (SHSY5Y (retinoic acid induced), 50 mM KCl alone) and 2.3 in experiment [4] (IMR32 (dbcAMP/BrdU induced), 50 mM KCl alone). In the case of `CNC1(C)C2CCC(C2)C1(C)C` (stereo not shown) [mecamylamine], in experiment [5], the “Fluorescence S/N ratio” value turned out to be 1.0. For the molecule `CN1CCCC1c1cccnc1` (stereo not shown) [nicotine], in experiment [5] (IMR32 cells, 200 μM agonist alone, Equation 2), the “Fluorescence S/N ratio” value was 2.3.
